One data set concerns ox-brain Na+,K+-ATPase. The conditions noted are these: cited from earlier work.
Another data set deals with Na+,K+-dependent ATPase. In kind it is binding, turkey. The conditions noted are these: 150 mM Na+; for t1/2, observed half-time for disappearance of empty binding sites: 0.11-[…] K+, 37 C (Table I).
The subject of a further data set is human erythrocytes. The conditions noted are these: similar conditions, estimated; cited from earlier work.

Like-named read-outs stand apart in the source and are kept apart here.

Consider `C[C@@H]1O[C@@H](O[C@H]2C[C@@H](O)[C@]3(CO)[C@H]4[C@H](O)C[C@]5(C)[C@@H](C6=CC(=O)OC6)CC[C@]5(O)[C@@H]4CC[C@]3(O)C2)[C@H](O)[C@H](O)[C@H]1O` [ouabain], for which the “activation energy for association (k1)” value in the data set on ox-brain Na+,K+-ATPase (Na+,K+-ATPase from ox-brain cortex microsomes) is 21 to 23 kcal/mol. Also, in the data set on Na+,K+-dependent ATPase (5-37 C), the “activation energy for association (Arrhenius plot of k1)” value was 29.5 kcal/mol. The “activation energy for dissociation (Arrhenius plot of k-1)” value in the data set on Na+,K+-dependent ATPase (5-37 C) was found to be 24.2 kcal/mol. Besides, the “time to attain equilibrium between free and bound radioligand” value in the data set on Na+,K+-dependent ATPase (20 C or higher, 0.5 mM K+, 0.85 uM [3H]ouabain (Fig. 1)) is recorded as at most 15 min. In addition, the “k-1, dissociation rate constant” value in the data set with Na+,K+-dependent ATPase (37 C, 0.5 mM K+, after 1 mM nonradioactive ouabain (Fig. 2)) was 0.16 min⁻¹; in the data set with human erythrocytes, ~ 0.001 min-1. Further, the “t1/2, observed half-time for disappearance of empty binding sites” value in the data set with Na+,K+-dependent ATPase ([3H]ouabain 1.7x10-7 M) was determined as 2.2 min; in the data set on Na+,K+-dependent ATPase ([3H]ouabain 3.2x10-7 M), 1.2 min; with Na+,K+-dependent ATPase ([3H]ouabain 8.1x10-7 M) it was 0.49 min; in the data set on Na+,K+-dependent ATPase ([3H]ouabain 8.1x10-8 M) it was 5.1 min.
Turning to `[K+]` [potassium ion], on ox-brain Na+,K+-ATPase (read-out: D, dissociation constant for the potassium ion-ATPase complex, partially purified ox-brain ATPase, 150 mM Na+), the Kd is 2200 µM.

The values above are taken from publication PMC2228615 (The Journal of General Physiology, 1980).
